Measurements taken from paper PMC9617675 (Antiviral Research, 2022).
Where “and” joins values, the source holds several entries; their conditions need not be identical. Identical values can stand only once. Like-named read-outs stand apart in the source and are kept apart here.

Experiments:
[1] = in vitro; conditions: African green monkey
[2] = test system: SARS-CoV-2 (2019-nCoV-WIV04); type: cell-based; conditions: Vero E6
[3] = test system: Vero E6 cells
[4] = healthy human; ref NCT05197179 and NCT04766931; cited from earlier work
[5] = test system: SARS-CoV-2 wild-type (2019-nCoV-WIV04); type: cell-based
[6] = test system: SARS-CoV-2; assay: Time of addition assay in Vero E6 cells; type: cell-based; conditions: 2 μM, 10 μM, 1 μM + P-gp inhibitor; entry, post entry and full-time
[7] = test system: SARS-CoV-2 B.1.1.7 (Alpha); type: cell-based; conditions: Vero E6 cells, mean ± SD
[8] = test system: SARS-CoV-2 B.1.351 (Beta); type: cell-based; conditions: Vero E6 cells, mean ± SD
[9] = test system: SARS-CoV-2 B.1.617.2 (Delta); type: cell-based; conditions: Vero E6 cells, mean ± SD

Row | SMILES | CC50 [1] | EC50 ([2]; 10% human serum) | EC50 ([2]; 20% human serum) | EC50 ([2]; 30% human serum) | EC50 ([2]; 40% human serum) | EC50 ([2]; 50% human serum) | CC50 ([3]; CCK8, 24 h) | CC50 ([3]; CCK8, with P-gp inhibitor CP-100356) | safety and tolerability [4] | EC50 [5] | EC90 [5] | antiviral activity in time of addition assay [6] | EC50 [7] | EC90 [7] | EC50 [8] | EC90 [8] | EC50 [9] | EC90 [9]
1 | CCN(CC)CCCC(C)Nc1ccnc2cc(Cl)ccc12 (stereo not drawn) [Chloroquine phosphate] | > 100 µM |  |  |  |  |  |  |  |  |  |  |  |  |  |  |  |  | 
2 | O=C[C@H](C[C@@H]1CCNC1=O)NC(=O)[C@H](CC1CCCCC1)NC(=O)c1cc2ccccc2[nH]1 [FB2001] |  | 1.1 µM | 1.91 µM | 2.57 µM | 2.15 µM | 2.4 µM | 243 µM and 274 µM | 142 µM | good safety and tolerability | 0.42 ± 0.08 µM | 1.36 ± 1.73 µM | potent antiviral activities under all conditions | 0.39 ± 0.01 µM | 0.75 ± 0.01 µM | 0.28 ± 0.11 µM | 0.57 ± 0.21 µM | 0.27 ± 0.05 µM | 0.81 ± 0.2 µM
3 | CC(C)(C)[C@H](NC(=O)C(F)(F)F)C(=O)N1C[C@H]2[C@@H]([C@H]1C(=O)N[C@H](C#N)C[C@@H]1CCNC1=O)C2(C)C [PF-07321332, reference compound] |  |  |  |  |  |  |  |  |  |  |  |  | 0.82 ± 0.02 µM | 1.54 ± 0.02 µM | 0.49 ± 0.06 µM | 1.74 ± 0.26 µM | 0.78 ± 0.21 µM | 1.89 ± 0.1 µM
